Data taken from publication PMC5947527 (Chemical Science, 2015).
“Also recorded” adds a separate entry of the source. Non-standard residues stand in square brackets, D forms with d. Residues, ends and D or L forms follow the SMILES beside them. *: point of attachment. NBD = O=[N+]([O-])c1ccc(*)c2nonc12; Nle = CCCC[C@H](N)C(=O)O; Ahx = NCCCCCC(=O)O

Legend:
[1] = Stability in ARDS bronchoalveolar lavage fluid (MALDI-TOF MS); assay type: in vitro ADME, human; conditions: for stability in ARDS BALF: human ARDS BALF pooled from three patients vs PBS, 5 and 30 min
Source text: To determine the ability of UBI-3 to image bacteria in the continued presence of a complex inflammatory environment, bacteria were labelled with UBI-3 in the presence of broncho-alveolar lavage fluid (BALF) retrieved from ventilated ICU patients with Acute Respiratory Distress Syndrome (ARDS). ARDS BALF was utilised as ARDS is a severe life threatening pulmonary syndrome, characterized by a massive proteolytic and oxidative inflammatory environment within the distal alveolar region.[14] […] To design out susceptible amino acid cleavage points, a number of modifications were made (Table 1) and the functional consequences assessed. The chemical approaches pursued to improve resistance to degradation included replacing amino acids at the cleavage positions with non-natural amino acids such as N-methyl or D-amino acids,[15] and cyclisation of the peptide,[16] which could have the added benefit of enhancing affinity towards bacterial membrane.[17]
The Arg–Arg bonds were identified as the prominent position of degradation (Fig. 5) and Compounds UBI-4–9 (Table 1) were synthesised with a variety of substitutions around the degradation sites. The susceptible peptide bonds at P1–P2 and P7–P8 were blocked using N-MeArg (UBI-4), and to further mask these positions, a long polyethylene glycol (PEG) chain and/or a D-amino acid were positioned at the carboxylic and/or amino termini (UBI-5–7).
We hypothesized that cyclisation of the sequence would allow for greater stability and also improve bacterial affinity and therefore cyclic variants of UBI-3 were synthesized (UBI-10 and UBI-11), which were both found to be stable in BALF for 5 minutes (Fig. 7 and S3 ESI ^†). […] However, these studies also highlighted the degradation of UBI-10 at 10 minutes, guiding the temporal constraints of Smartprobe delivery and optical imaging.
Fig. 7 UBI-10 remains stable in ARDS BALF at 5 minutes. (A) Structure of UBI-10 with breakdown products in ARDS BALF. […] TEXT PRINTED IN THE PICTURE: UBI-10: Molecular Weight: 2118.41 | Fragment A: Molecular Weight: 1923.18 | Fragment B: Molecular Weight: 1980.23 DOUBTS OF THE COPYIST ABOUT THIS PICTURE: UBI-10, Molecular Weight: very small print, 2118.41 is the best reading; the digits 8 and 4 are uncertain / Fragment A, Molecular Weight: very small print, 1923.18 is the best reading; the digits 9, 3 and 8 are uncertain / Fragment B, Molecular Weight: very small print, 1980.23 is the best reading; the digits 9, 8 and 3 are uncertain […]
Supplementary Information
A Labelled-Ubiquicidin Antimicrobial Peptide for Immediate In Situ Optical Detection of Live Bacteria in Human Alveolar Lung Tissue
Ahsan R Akram, Nicolaos Avlonitis, Annamaria Lilienkampf, Ana M Perez-Lopez, Neil McDonald, Sunay V Chankeshwara, Emma Scholefield, Christopher Haslett, Mark Bradley & Kevin Dhaliwal.
Figure S1: MALDI-TOF MS spectra for a stability study of UBI-3 in PBS and in ARDS BALF […]
Figure S2. MALDI-TOF MS spectra of modified analogues UBI-4 to UBI-9 in Phosphate Buffered Saline and ARDS BALF over a period of 5 and 30min.
Figure S3: MALDI-TOF MS spectra of UBI-11 in Phosphate Buffered Saline vs ARDS BALF […]
Figure S4. Quantified fluorescence of confocal microscopy images of the compounds UBI-3, UBI-5 and UBI-10 on three bacteria and fluorescence retention following a PBS wash.
Figure S5: Fibered confocal fluorescence microscopy imaging of human lung and Calcein AM stained Methicillin sensitive S. aureus.
Experimental Details including Tables M1-4, Figure M1 and HPLC Chromatograms.
(also on this page, place not known: Electronic Supplementary Material (ESI) for Chemical Science. This journal is © The Royal Society of Chemistry 2015)
(1 picture or pasted object on this page, not shown here) […]
BALF Retrieval: Bronchoalveolar lavage was performed in the Intensive Care Unit (ICU), as previously described. S5 Pooled samples from three patients were used for stability assays. […]
Exposure to 488 nm light was limited to 5% […]

[2] = test system: bacteria in ex vivo human lung tissue; test: Fibered confocal fluorescence microscopy (FCFM) of labelled bacteria on ex vivo human lung tissue; conditions: 10 μM, bacteria pre-labelled, 488 nm FCFM, n = 3
Method: Since NBD is also excited at 488 nm, the utility and detection of the Smartprobes with FCFM was next evaluated. […] These were then delivered onto ex vivo human lung tissue fragments.
Fig. 10 UBI-10 can be used to image bacteria in ex vivo human lung tissue by fibered confocal fluorescence microscopy (FCFM). FCFM imaging of bacteria in suspension (upper panels) or when co-incubated with ex vivo human lung tissue (lower panels). […] All compounds at 10 μM, n = 3. […]
mean fluorescence intensity on the probe channel within this ROI was quantified. Data presented represents the mean of three experiments, from each of which three separate fields of view were assessed. All experiments were performed at least three times unless otherwise stated and results expressed as mean ± SEM. Data was analysed by unpaired t-test and significance was determined as p<0.05 (GraphPad Prism version 5.01 for Windows, GraphPad Software, San Diego California USA).
Ex vivo Human Lung and FCFM Procedure: Human lung samples were obtained from patients undergoing surgical resection for lung carcinoma. All images were obtained on sections of normal lung away from the cancerous growth. Informed consent was obtained and the study was approved by the Regional Ethics Committee. Samples were taken fresh from the operating theatre, dissected into 4mm sections and placed in wells of 96 well plate. […]

| Compound | stability in ARDS BALF ([1]; MALDI-TOF MS) | time of degradation of the peptide in ARDS BALF ([1]; human ARDS BALF, MALDI-TOF MS) [min] | detection of labelled bacteria by FCFM on ex vivo human lung tissue [2] | time stable in ARDS BALF ([1]; human ARDS BALF, MALDI-TOF MS) [min] | time at which degradation products form in ARDS BALF ([1]; human ARDS BALF, MALDI-TOF time course) [min] |
| --- | --- | --- | --- | --- | --- |
| CCCC[C@H](NC(=O)[C@H](CCCNC(=N)N)NC(=O)[C@H](CCCNC(=N)N)NC(=O)[C@H](CCCCN)NC(=O)[C@H](C)NC(=O)[C@H](CCCNC(=N)N)NC(=O)CNC(=O)[C@@H](NC(=O)CCCCCNc1ccc([N+](=O)[O-])c2nonc12)[C@@H](C)O)C(=O)N[C@@H](CCC(N)=O)C(=O)N[C@@H](Cc1ccc(O)cc1)C(=O)N[C@@H](CC(N)=O)C(=O)N[C@@H](CCCNC(=N)N)C(=O)N[C@@H](CCCNC(=N)N)C(N)=O [UBI-3] ({NBD-Ahx}-TGRAKRR[Nle]QYNRR-NH2) | Unstable in ARDS BALF | < 5 | immediately lost their fluorescent signal; also recorded: can image bacteria in suspension but not in the presence of ex vivo human lung | – | – |
| CCCC[C@@H]1NC(=O)[C@H](CCCNC(=N)N)NC(=O)[C@H](CCCNC(=N)N)NC(=O)[C@H](CCCCN)NC(=O)[C@H](C)NC(=O)[C@H](CCCNC(=N)N)NC(=O)CNC(=O)[C@H]([C@@H](C)O)NC(=O)[C@@H](NC(=O)CCCCCNc2ccc([N+](=O)[O-])c3nonc23)CCCCNC(=O)CNC(=O)[C@H](CCCNC(=N)N)NC(=O)[C@H](CCCNC(=N)N)NC(=O)[C@H](CC(N)=O)NC(=O)[C@H](Cc2ccc(O)cc2)NC(=O)[C@H](CCC(N)=O)NC1=O [UBI-10] | Improved stability in ARDS BALF | – | readily identified above elastin autofluorescence; also recorded: can image bacteria by FCFM in the presence of ex vivo human lung | 5 | 10 |
